Target: T1, ATR/ATRIP (Homo sapiens, UniProt Q13535)
T1 construct: human ATR, full length, GenBank ID: NM_001184.3; p53: Sf21 insect cells
Experiment: ATR/ATRIP kinase assay (TR-FRET, p53 phosphorylation)
Assay type: biochemical
Conditions: Table 1, class symbols; read-out: ATR-ATRIP IC50
Experimental: ATR/ATRIP Kinase Assay—Measurement of ATR/ATRIP Inhibition
The IC50 value was determined by an ATR/ATRIP enzymatic assay. The assay comprises two steps: the enzymatic reaction and the detection step. First, a mixture of ATR/ATRIP protein (Ataxia Telangiectasia and Rad3-related protein/ATR interacting protein), the compound in question at different concentrations, p53 as substrate protein and adenosine triphosphate (ATP) are incubated in assay buffer. ATR phosphorylates p53 at Ser15 and other residues. The amount of phosphorylated p53 is then detected using specific antibodies and the TR-FRET assay technology.
In detail: The ATR/ATRIP enzymatic assay is performed as a TR-FRET-(HTRF™, Cisbio Bioassays) based 384-well assay. In a first step, purified human recombinant ATR/ATRIP (human ATR, full length, GenBank ID: NM_001184.3, and human ATRIP, full length, GenBank ID AF451323.1, co-expressed in a mammalian cell line) is incubated in assay buffer for 15 minutes at 22° C. with test compound at different concentrations or without test compound (as a negative control). The assay buffer contains 25 mM HEPES pH 8.0, 10 mM Mg(CH3COO)2, 1 mM MnCl2, 0.1% BSA, 0.01% Brij® 35, and 5 mM dithiothreitol (DTT). […] Then, in a second step, purified human recombinant cmyc-tagged p53 (human p53, full length, GenBank ID: BC003596, expressed in Sf21 insect cells) and ATP are added and the reaction mixture is incubated for 25-35 minutes, typically 25 minutes, at 22° C. The pharmacologically relevant assay volume is 5 μl. The final concentrations in the assay during incubation of the reaction mixture are 0.3-0.5 nM, typically 0.3 nM, ATR/ATRIP, 50 nM p53, and 0.5 μM ATP. The enzymatic reaction is stopped by the addition of EDTA. […] Following signal development for 2 h the plates are analyzed in an EnVision (PerkinElmer) microplate reader using the TRF mode with laser excitation. […] Data are processed employing the Genedata Screener software. In particular, IC50 values are determined in the usual manner by fitting a dose-response curve to the data points using nonlinear regression analysis.

T1 sequence (Q13535 whole entry): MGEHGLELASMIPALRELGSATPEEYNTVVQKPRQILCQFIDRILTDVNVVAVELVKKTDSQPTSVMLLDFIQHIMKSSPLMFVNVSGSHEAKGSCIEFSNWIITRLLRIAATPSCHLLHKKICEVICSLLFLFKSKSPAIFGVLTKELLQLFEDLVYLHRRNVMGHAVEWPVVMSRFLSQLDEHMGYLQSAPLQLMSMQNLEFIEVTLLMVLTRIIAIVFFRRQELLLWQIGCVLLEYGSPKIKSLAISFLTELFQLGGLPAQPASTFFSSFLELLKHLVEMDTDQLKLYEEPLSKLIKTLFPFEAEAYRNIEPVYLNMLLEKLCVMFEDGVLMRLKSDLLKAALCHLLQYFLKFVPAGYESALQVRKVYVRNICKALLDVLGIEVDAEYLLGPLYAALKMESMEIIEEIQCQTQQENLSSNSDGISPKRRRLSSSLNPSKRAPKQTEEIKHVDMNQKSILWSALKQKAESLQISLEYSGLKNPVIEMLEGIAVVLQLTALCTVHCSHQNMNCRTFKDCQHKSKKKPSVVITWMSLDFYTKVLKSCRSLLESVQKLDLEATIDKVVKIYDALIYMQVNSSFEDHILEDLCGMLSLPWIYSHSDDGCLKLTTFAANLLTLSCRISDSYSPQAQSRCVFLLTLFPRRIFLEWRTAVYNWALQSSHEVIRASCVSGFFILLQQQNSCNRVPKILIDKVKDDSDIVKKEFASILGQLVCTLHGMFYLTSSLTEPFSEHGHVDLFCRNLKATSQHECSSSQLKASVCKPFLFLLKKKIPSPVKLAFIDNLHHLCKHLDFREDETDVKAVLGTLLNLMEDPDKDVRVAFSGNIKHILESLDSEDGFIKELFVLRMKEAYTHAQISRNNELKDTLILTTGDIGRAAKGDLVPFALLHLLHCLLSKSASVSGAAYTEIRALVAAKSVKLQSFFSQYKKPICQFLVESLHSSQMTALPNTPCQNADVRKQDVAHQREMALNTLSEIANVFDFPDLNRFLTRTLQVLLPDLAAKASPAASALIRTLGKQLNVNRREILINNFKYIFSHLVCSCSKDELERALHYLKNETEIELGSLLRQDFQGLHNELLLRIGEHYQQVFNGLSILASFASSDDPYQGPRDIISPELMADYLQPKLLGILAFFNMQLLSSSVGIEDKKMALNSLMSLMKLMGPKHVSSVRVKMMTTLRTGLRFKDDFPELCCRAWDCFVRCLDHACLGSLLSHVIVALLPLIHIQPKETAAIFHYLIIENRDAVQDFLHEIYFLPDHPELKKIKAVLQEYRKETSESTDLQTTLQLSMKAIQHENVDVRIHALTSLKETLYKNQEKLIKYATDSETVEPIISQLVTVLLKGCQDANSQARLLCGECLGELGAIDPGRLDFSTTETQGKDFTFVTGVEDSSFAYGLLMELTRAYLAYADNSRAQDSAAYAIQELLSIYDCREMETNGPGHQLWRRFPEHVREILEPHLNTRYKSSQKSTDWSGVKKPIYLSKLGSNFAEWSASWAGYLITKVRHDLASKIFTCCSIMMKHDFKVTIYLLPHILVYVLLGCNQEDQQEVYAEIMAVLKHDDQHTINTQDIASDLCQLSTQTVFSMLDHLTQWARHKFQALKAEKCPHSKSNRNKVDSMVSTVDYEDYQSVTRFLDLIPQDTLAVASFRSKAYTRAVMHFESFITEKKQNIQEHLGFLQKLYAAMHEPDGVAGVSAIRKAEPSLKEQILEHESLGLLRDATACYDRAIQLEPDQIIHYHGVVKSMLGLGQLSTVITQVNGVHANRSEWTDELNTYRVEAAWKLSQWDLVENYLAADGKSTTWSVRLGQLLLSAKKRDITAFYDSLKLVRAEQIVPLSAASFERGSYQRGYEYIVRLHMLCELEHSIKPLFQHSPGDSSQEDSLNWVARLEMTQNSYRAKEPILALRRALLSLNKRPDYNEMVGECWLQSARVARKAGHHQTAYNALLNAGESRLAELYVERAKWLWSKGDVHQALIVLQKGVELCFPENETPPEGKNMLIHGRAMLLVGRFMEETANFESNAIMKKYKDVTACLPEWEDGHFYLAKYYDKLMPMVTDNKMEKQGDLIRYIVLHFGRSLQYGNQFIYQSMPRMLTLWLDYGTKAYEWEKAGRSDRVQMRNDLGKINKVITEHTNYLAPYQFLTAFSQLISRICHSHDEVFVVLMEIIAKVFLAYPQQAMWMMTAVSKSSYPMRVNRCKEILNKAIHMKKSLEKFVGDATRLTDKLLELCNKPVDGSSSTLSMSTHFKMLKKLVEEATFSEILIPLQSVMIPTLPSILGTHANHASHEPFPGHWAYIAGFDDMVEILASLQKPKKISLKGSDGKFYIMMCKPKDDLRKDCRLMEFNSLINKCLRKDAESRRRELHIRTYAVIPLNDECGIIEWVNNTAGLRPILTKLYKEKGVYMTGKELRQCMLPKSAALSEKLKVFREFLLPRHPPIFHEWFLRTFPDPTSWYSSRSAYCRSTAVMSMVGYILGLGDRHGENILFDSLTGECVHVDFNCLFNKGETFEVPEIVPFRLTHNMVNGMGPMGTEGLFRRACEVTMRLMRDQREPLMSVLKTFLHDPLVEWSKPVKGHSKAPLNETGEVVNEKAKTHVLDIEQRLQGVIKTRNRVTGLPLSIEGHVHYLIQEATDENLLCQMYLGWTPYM
T1 sequence (Q8WXE1 whole entry partner): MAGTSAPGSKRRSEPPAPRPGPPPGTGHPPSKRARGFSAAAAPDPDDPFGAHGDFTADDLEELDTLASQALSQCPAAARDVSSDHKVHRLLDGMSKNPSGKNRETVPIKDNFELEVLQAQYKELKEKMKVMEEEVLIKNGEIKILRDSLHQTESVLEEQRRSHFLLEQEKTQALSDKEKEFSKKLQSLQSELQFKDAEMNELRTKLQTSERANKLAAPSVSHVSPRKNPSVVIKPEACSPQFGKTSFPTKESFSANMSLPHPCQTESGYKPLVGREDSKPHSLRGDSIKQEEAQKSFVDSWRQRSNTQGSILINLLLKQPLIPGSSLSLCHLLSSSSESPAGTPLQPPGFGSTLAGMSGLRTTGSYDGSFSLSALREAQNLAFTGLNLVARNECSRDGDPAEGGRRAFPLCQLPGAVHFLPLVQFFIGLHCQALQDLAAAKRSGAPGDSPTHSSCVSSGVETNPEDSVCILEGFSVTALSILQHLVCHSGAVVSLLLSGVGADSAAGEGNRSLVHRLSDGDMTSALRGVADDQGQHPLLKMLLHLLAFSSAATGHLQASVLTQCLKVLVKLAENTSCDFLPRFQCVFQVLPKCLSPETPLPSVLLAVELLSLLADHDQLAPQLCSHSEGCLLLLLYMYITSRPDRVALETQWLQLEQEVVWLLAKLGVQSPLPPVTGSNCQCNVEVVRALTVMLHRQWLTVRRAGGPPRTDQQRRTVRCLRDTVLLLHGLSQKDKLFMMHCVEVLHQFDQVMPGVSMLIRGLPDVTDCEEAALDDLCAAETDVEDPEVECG

Structure (SMILES) | IC50
C[C@@H]1COC[C@H]2COc3c(Cn4nncc4C(=O)O)nc(-c4ccnc5[nH]ccc45)nc3N21 [A2, 3-[(5R,8aS)-5-Methyl-3-(1H-pyrrolo[2,3-b]pyridin-4-yl)-5,6,8a,9-tetrahydro-8H-7,10-dioxa-2,4,4b-triaza-phenanthren-1-ylmethyl]-3H[1,2,3]triazole-4-carboxylic Acid] | 10 to 100 nM
CNc1nc2ccccc2n1-c1nc(Cn2nncc2C(=O)O)c2c(n1)N1[C@@H](COC[C@H]1C)CO2 [A3, 3-[(5R,8aS)-5-Methyl-3-(2-methylamino-benzoimidazol-1-yl)-5,6,8a,9-tetrahydro-8H-7,10-dioxa-2,4,4b-triaza-phenanthren-1-ylmethyl]-3H[1,2,3]triazole-4-carboxylic Acid] | 100 to 500 nM
C[C@@H]1COC[C@H]2COc3c(Cn4cc(C(=O)O)nn4)nc(-c4ccnc5[nH]ccc45)nc3N21 [A4, 1-[(5R,8aS)-5-Methyl-3-(1H-pyrrolo[2,3-b]pyridin-4-yl)-5,6,8a,9-tetrahydro-8H-7,10-dioxa-2,4,4b-triaza-phenanthren-1-ylmethyl]-1H-[1,2,3]triazole-4-carboxylic Acid] | 1 to 10 nM
CNCc1c[nH]c2ncc(F)c(-c3nc4c(c(C(C)(C)O)n3)OC[C@@H]3COC[C@@H](C)N43)c12 [A5, 2-[(5R,8aS)-3-(5-Fluoro-3-methylaminomethyl-1H-pyrrolo[2,3-b]pyridin-4-yl)-5-methyl-5,6,8a,9-tetrahydro-8H-7,10-dioxa-2,4,4b-triaza-phenanthren-1-yl]-propan-2-ol] | 10 to 100 nM
C[C@@H]1COC[C@H]2COc3c(nc(N(C)c4nc5ccccc5[nH]4)nc3C(C)(C)O)N21 [A12, 2-{(5R,8aS)-3-[(1H-Benzimidazol-2-yl)-methyl-amino]-5-methyl-5,6,8a,9-tetrahydro-8H-7,10-dioxa-2,4,4b-triaza-phenanthren-1-yl}-propan-2-ol] | 10 to 100 nM
CNc1nc2ccccc2n1-c1nc2c(c(C(C)(C)S(C)(=O)=O)n1)OC[C@H]1COC[C@H](C)N21 [A14, {1-[(5S,8aR)-1-(1-Methanesulfonyl-1-methyl-ethyl)-5-methyl-5,6,8a,9-tetrahydro-8H-7,10-dioxa-2,4,4b-triaza-phenanthren-3-yl]-1H-benzimidazol-2-yl}-methyl-amine] | 10 to 100 nM
C[C@@H]1COC[C@H]2COc3c(nc(N(C)c4nc5ccccc5[nH]4)nc3C(C)(C)S(C)(=O)=O)N21 [A16, (1H-Benzimidazol-2-yl)-[(5R,8aS)-1-(1-methanesulfonyl-1-methyl-ethyl)-5-methyl-5,6,8a,9-tetrahydro-8H-7,10-dioxa-2,4,4b-triaza-phenanthren-3-yl]-methyl-amine] | 10 to 100 nM
CNc1nc2ccccc2n1-c1nc(Cn2cc(C(=O)O)nn2)c2c(n1)N1[C@@H](COC[C@H]1C)CO2 [A17, 1-[(5R,8aS)-5-Methyl-3-(2-methylamino-benzimidazol-1-yl)-5,6,8a,9-tetrahydro-8H-7,10-dioxa-2,4,4b-triaza-phenanthren-1-ylmethyl]-1H[1,2,3]triazole-4-carboxylic Acid] | 100 to 500 nM
COC(=O)c1cn(Cc2nc(-c3ccnc4[nH]ccc34)nc3c2OC[C@@H]2COC[C@@H](C)N32)nn1 [A18, 1-[(5R,8aS)-5-Methyl-3-(1H-pyrrolo[2,3-b]pyridin-4-yl)-5,6,8a,9-tetrahydro-8H-7,10-dioxa-2,4,4b-triaza-phenanthren-1-ylmethyl]-1H-[1,2,3]triazole-4-carboxylic Acid Methyl Ester] | 1 to 10 nM
COC(=O)c1cn(Cc2nc(-c3ccnc4c3ccn4C)nc3c2OC[C@@H]2COC[C@@H](C)N32)nn1 [A19, 1-[(5R,8aS)-5-Methyl-3-(1-methyl-1H-pyrrolo[2,3-b]pyridin-4-yl)-5,6,8a,9-tetrahydro-8H-7,10-dioxa-2,4,4b-triaza-phenanthren-1-ylmethyl]-1H[1,2,3]triazole-4-carboxylic Acid Methyl Ester] | 100 to 500 nM
CNc1nc2ccccc2n1-c1nc(Cn2cc(C(=O)OC)nn2)c2c(n1)N1[C@@H](COC[C@H]1C)CO2 [A22, 1-[(5R,8aS)-5-Methyl-3-(2-methylamino-benzoimidazol-1-yl)-5,6,8a,9-tetrahydro-8H-7,10-dioxa-2,4,4b-triaza-phenanthren-1-ylmethyl]-1H[1,2,3]triazole-4-carboxylic Acid Methyl Ester] | 10 to 100 nM
C[C@@H]1COC[C@H]2COc3c(nc(-c4c(F)ncc5c4ccn5C)nc3C(C)(C)S(C)(=O)=O)N21 [A38, (5R,8aS)-3-(5-fluoro-1-methyl-1H-pyrrolo[2,3-c]pyridin-4-yl)-1-(1-methanesulfonyl-1-methyl-ethyl)-5-methyl-5,6,8a,9-tetrahydro-8H-7,10-dioxa-2,4,4b-triaza-phenanthrene] | 500 to 30000 nM
C[C@@H]1COC[C@H]2COc3c(nc(-c4cncc(CO)c4)nc3C(C)(C)S(C)(=O)=O)N21 [A40, {5-[(5R,8aS)-1-(1-methanesulfonyl-1-methyl-ethyl)-5-methyl-5,6,8a,9-tetrahydro-8H-7,10-dioxa-2,4,4b-triaza-phenanthren-3-yl]-pyridin-3-yl}-methanol] | 1 to 10 nM
C[C@@H]1COC[C@H]2COc3c(nc(-c4cccc(CO)c4)nc3C(C)(C)S(C)(=O)=O)N21 [A41, {3-[(5R,8aS)-1-(1-methanesulfonyl-1-methyl-ethyl)-5-methyl-5,6,8a,9-tetrahydro-8H-7,10-dioxa-2,4,4b-triaza-phenanthren-3-yl]-phenyl}-methanol] | < 1 nM
CNc1ncn(-c2nc3c(c(C(C)(C)S(C)(=O)=O)n2)OC[C@@H]2COC[C@@H](C)N32)n1 [A43] | 100 to 500 nM
C[C@@H]1COC[C@H]2COc3c(nc(-c4ccc(CCN)cc4)nc3C(C)(C)S(C)(=O)=O)N21 [A45, 2-{4-[(4bS,6R)-1-(1-methanesulfonyl-1-methyl-ethyl)-5-methyl-5,6,8a,9-tetrahydro-8H-7,10-dioxa-2,4,4b-triaza-phenanthren-3-yl]-phenyl}-ethylamine] | 10 to 100 nM
C[C@@H]1COC[C@H]2COc3c(nc(C(=O)Nc4ccn[nH]4)nc3C(C)(C)S(C)(=O)=O)N21 [A47, (4bS,6R)-1-(1-methanesulfonyl-1-methyl-ethyl)-5-methyl-5,6,8a,9-tetrahydro-8H-7,10-dioxa-2,4,4b-triaza-phenanthrene-3-carboxylic Acid (2H-pyrazol-3-yl)-amide] | 500 to 30000 nM
C[C@@H]1COC[C@H]2COc3c(nc(C(=O)N4CC[C@H](O)C4)nc3C(C)(C)S(C)(=O)=O)N21 [A48, ((S)-3-hydroxy-pyrrolidin-1-yl)-[(4bS,6R)-1-(1-methanesulfonyl-1-methyl-ethyl)-5-methyl-5,6,8a,9-tetrahydro-8H-7,10-dioxa-2,4,4b-triaza-phenanthren-3-yl]-methanone] | 500 to 30000 nM
C[C@@H]1COC[C@H]2COc3c(nc(C(=O)N4CC[C@@H](O)C4)nc3C(C)(C)S(C)(=O)=O)N21 [A49, ((R)-3-hydroxy-pyrrolidin-1-yl)-[(4bS,6R)-1-(1-methanesulfonyl-1-methyl-ethyl)-5-methyl-5,6,8a,9-tetrahydro-8H-7,10-dioxa-2,4,4b-triaza-phenanthren-3-yl]-methanone] | 500 to 30000 nM
C[C@@H]1COC[C@H]2COc3c(nc(C(=O)N4CC[C@@H](N)C4)nc3C(C)(C)S(C)(=O)=O)N21 [A51, ((R)-3-amino-pyrrolidin-1-yl)-[(4bS,6R)-1-(1-methanesulfonyl-1-methyl-ethyl)-5-methyl-5,6,8a,9-tetrahydro-8H-7,10-dioxa-2,4,4b-triaza-phenanthren-3-yl]-methanone] | 500 to 30000 nM
C[C@@H]1COC[C@H]2COc3c(nc(C(=O)NC[C@@H](C)O)nc3C(C)(C)S(C)(=O)=O)N21 [A53, (4bS,6R)-1-(1-methanesulfonyl-1-methyl-ethyl)-5-methyl-5,6,8a,9-tetrahydro-8H-7,10-dioxa-2,4,4b-triaza-phenanthrene-3-carboxylic Acid ((R)-2-hydroxy-propyl)-amide] | 500 to 30000 nM
C[C@H](O)CNC(=O)c1nc2c(c(C(C)(C)S(C)(=O)=O)n1)OC[C@@H]1COC[C@@H](C)N21 [A54, (4bS,6R)-1-(1-methanesulfonyl-1-methyl-ethyl)-5-methyl-5,6,8a,9-tetrahydro-8H-7,10-dioxa-2,4,4b-triaza-phenanthrene-3-carboxylic Acid ((S)-2-hydroxy-propyl)-amide] | 500 to 30000 nM
C[C@@H]1COC[C@H]2COc3c(nc(C(=O)Nc4nnc[nH]4)nc3C(C)(C)S(C)(=O)=O)N21 [A55, (4bS,6R)-1-(1-methanesulfonyl-1-methyl-ethyl)-5-methyl-5,6,8a,9-tetrahydro-8H-7,10-dioxa-2,4,4b-triaza-phenanthrene-3-carboxylic Acid (4H-[1,2,4]triazol-3-yl)-amide] | 10 to 100 nM
